Measured values taken from the supplement of paper PMC10331698.
± gives the standard deviation of the averaged measurements.

How the values were obtained:
Experiment in all cases: level (log10 ratio to DMSO vehicle control); higher = higher biomarker level / cell amount than vehicle control
Conditions in all cases: in DMSO
Perfluorooctanamidine = compound: N=C(N)C(F)(F)C(F)(F)C(F)(F)C(F)(F)C(F)(F)C(F)(F)C(F)(F)F [Perfluorooctanamidine]
Experimental: (§1)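 BioMAP Diversity Plus panel of 12 human primary cell co-culture systems (3C, 4H, LPS, SAg, BT, BF4T, BE3C, CASM3C, HDF3CGF, KF3CT, MyoF, Mphg). Compounds were added 1 h before stimulation and left for 24 h (MyoF 48 h; BT 72 h for soluble read-outs or 6 d for IgG). Biomarkers were read by ELISA, cytotoxicity by SRB, PBMC viability and proliferation by Alamar Blue. Each well value was divided by the mean of 8 DMSO control wells on the same plate and log10 transformed; duplicate blinded samples were tested at 4 concentrations.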

[1] = compound: O=C(O)CCC(F)(F)C(F)(F)C(F)(F)C(F)(F)C(F)(F)F [2H,2H,3H,3H-Perfluorooctanoic acid]
Experimental: as §1

Perfluorohexanoic acid = compound: O=C(O)C(F)(F)C(F)(F)C(F)(F)C(F)(F)C(F)(F)F [Perfluorohexanoic acid]
Experimental: as §1

[2] = compound: O=C(O)C(F)(F)C(F)(F)C(F)(F)C(F)(F)C(F)(F)C(F)(F)C(F)(F)C(F)(F)Cl [9-Chloro-perfluorononanoic acid]
Experimental: as §1

[3] = compound: OCC(F)(F)C(F)(F)C(F)(F)C(F)(F)C(F)(F)C(F)F [1H,1H,7H-Dodecafluoro-1-heptanol]
Experimental: as §1

[4] = compound: O=S(=O)(O)C(F)(F)C(F)(F)C(F)(F)C(F)(F)C(F)(F)C(F)(F)C(F)(F)C(F)(F)F [Potassium perfluorooctanesulfonate]
Experimental: as §1

1-(Perfluorohexyl)octane = compound: CCCCCCCCC(F)(F)C(F)(F)C(F)(F)C(F)(F)C(F)(F)C(F)(F)F [1-(Perfluorohexyl)octane]
Experimental: as §1

Row | Test System | level (log10) (Perfluorooctanamidine; 6700 nM) | level (log10) (Perfluorooctanamidine; 20000 nM) | level (log10) (Perfluorooctanamidine; 60000 nM) | level (log10) ([1]; 6700 nM) | level (log10) ([1]; 20000 nM) | level (log10) ([1]; 60000 nM) | level (log10) (Perfluorohexanoic acid; 6700 nM) | level (log10) (Perfluorohexanoic acid; 20000 nM) | level (log10) (Perfluorohexanoic acid; 60000 nM) | level (log10) ([2]; 6700 nM) | level (log10) ([2]; 20000 nM) | level (log10) ([3]; 6700 nM) | level (log10) ([3]; 20000 nM) | level (log10) ([3]; 60000 nM) | level (log10) ([4]; 6700 nM) | level (log10) ([4]; 20000 nM) | level (log10) ([4]; 60000 nM) | level (log10) (1-(Perfluorohexyl)octane; 6700 nM) | level (log10) (1-(Perfluorohexyl)octane; 20000 nM)
1 | CASM3C:CCL2/MCP-1 | 0.008 ± 0.024 | 0.011 ± 0.034 | 0.085 | -0.002 ± 0.014 | 0.002 ± 0.0042 | 0.013 ± 0.028 | -0.014 ± 0.0042 | 0.0025 ± 0.021 | 0.008 ± 0.027 | -0.0085 ± 0.011 | -0.011 ± 0.0028 | -0.0065 ± 0.013 | -0.017 ± 0.02 | -0.008 ± 0.033 | 0.001 ± 0.024 | 0.01 ± 0.0057 | 0.0405 ± 0.021 | -0.0065 ± 0.018 | 0.001 ± 0.0042
2 | CASM3C:CD87/uPAR | -0.011 ± 0.016 | -0.02 ± 0.037 | -0.034 | -0.008 ± 0.013 | -0.011 ± 0.0071 | -0.0305 ± 0.0092 | -0.003 ± 0.027 | 0.0085 ± 0.022 | -0.012 ± 0.0014 | -0.002 | 0.02 ± 0.0071 | -0.001 ± 0.016 | 0.0035 ± 0.021 | -0.0055 ± 0.023 | -0.0025 ± 0.012 | -0.016 ± 0.0014 | -0.0095 ± 0.011 | -0.0175 ± 0.0078 | -0.005 ± 0.011
3 | CASM3C:CD106/VCAM-1 | -0.0165 ± 0.00071 | -0.0195 ± 0.012 | -0.032 | 0.0025 ± 0.019 | 0.0115 ± 0.044 | 0.01 ± 0.018 | -0.013 ± 0.011 | -0.002 ± 0.014 | -0.029 ± 0.018 | -0.029 ± 0.0014 | -0.027 ± 0.016 | -0.0025 ± 0.022 | -0.017 ± 0.0057 | -0.017 ± 0.024 | -0.0125 ± 0.019 | -0.0175 ± 0.005 | -0.104 ± 0.041 | -0.023 ± 0.0014 | -0.0115 ± 0.021
4 | CASM3C:CD141/Thrombomodulin | -0.008 ± 0.016 | -0.0205 ± 0.005 | 0.043 | -0.01 ± 0.04 | -0.036 ± 0.052 | -0.014 | 0.021 ± 0.021 | -0.0105 ± 0.021 | 0.0005 ± 0.044 | -0.0175 ± 0.022 | -0.0225 ± 0.025 | 0.0095 ± 0.052 | 0.0055 ± 0.0064 | -0.0055 ± 0.047 | 0.0235 ± 0.0021 | -0.004 ± 0.018 | -0.021 ± 0.031 | -0.0145 ± 0.00071 | -0.0165 ± 0.03
5 | CASM3C:CD142/Tissue Factor | -0.022 ± 0.024 | -0.033 ± 0.0014 | 0.042 | -0.0115 ± 0.022 | -0.0505 ± 0.0092 | -0.0095 ± 0.022 | -0.0125 ± 0.013 | -0.019 ± 0.0042 | -0.0145 ± 0.005 | -0.017 ± 0.011 | 0.0055 ± 0.0064 | 0.0235 ± 0.043 | 0.0015 ± 0.0064 | -0.0185 ± 0.0035 | -0.016 ± 0.041 | -0.014 ± 0.023 | -0.0265 ± 0.029 | -0.0265 ± 0.028 | -0.0295 ± 0.005
6 | CASM3C:CXCL8/IL-8 | 0.011 ± 0.017 | 0.0075 ± 0.0092 | 0.053 | 0.0055 ± 0.018 | -0.0055 ± 0.0021 | 0.0175 ± 0.00071 | 0.0005 ± 0.021 | 0.007 ± 0.0099 | 0.0265 ± 0.028 | 0.0045 ± 0.00071 | 0.0175 ± 0.016 | 0.0055 ± 0.012 | 0.005 ± 0.013 | 0.0055 ± 0.00071 | 0.001 ± 0.027 | 0.023 ± 0.018 | 0.048 ± 0.04 | -0.001 ± 0.017 | 0.006 ± 0.0099
7 | CASM3C:CXCL9/MIG | -0.005 ± 0.013 | -0.017 ± 0.024 | 0.069 | -0.0185 ± 0.00071 | -0.0285 ± 0.0092 | 0.0045 ± 0.042 | 0.008 ± 0.0057 | 0.001 ± 0.0042 | 0.012 ± 0.021 | -0.0355 ± 0.0035 | -0.0235 ± 0.013 | 0.002 ± 0.0071 | 0.007 ± 0.0014 | 0.0195 ± 0.005 | 0.015 ± 0.0071 | 0.012 ± 0.016 | 0.09 ± 0.027 | -0.0115 ± 0.0021 | 0.0255 ± 0.005
8 | CASM3C:HLA-DR | -0.0335 ± 0.016 | -0.0655 ± 0.011 | -0.022 | 0.004 ± 0.0057 | -0.026 ± 0.021 | -0.014 | 0.004 ± 0.0099 | -0.004 ± 0.0057 | -0.004 ± 0.011 | 0.0085 ± 0.0035 | 0.0015 ± 0.012 | -0.0045 ± 0.03 | 0.0075 ± 0.0064 | 0.0045 ± 0.0021 | -0.0015 ± 0.0021 | -0.035 ± 0.028 | -0.0235 ± 0.054 | -0.0155 ± 0.015 | -0.0125 ± 0.005
9 | CASM3C:IL-6 | -0.046 ± 0.023 | -0.041 ± 0.035 | 0.041 | -0.0035 ± 0.0064 | -0.008 ± 0.0057 | 0.0145 ± 0.05 | -0.0075 ± 0.042 | -0.0155 ± 0.0021 | -0.0125 ± 0.053 | -0.0115 ± 0.00071 | -0.0325 ± 0.019 | -0.0165 ± 0.035 | -0.024 ± 0.021 | 0.008 ± 0.028 | -0.025 ± 0.0042 | -0.0285 ± 0.016 | -0.0425 ± 0.083 | -0.019 ± 0.031 | 0.0205 ± 0.023
10 | CASM3C:LDLR | 0.012 ± 0.013 | 0.036 ± 0.0085 | 0.108 | 0.0005 ± 0.0021 | -0.001 ± 0.018 | 0.0095 ± 0.047 | 0.001 ± 0.0028 | -0.0065 ± 0.029 | -0.0025 ± 0.039 | -0.011 ± 0.013 | -0.0065 ± 0.0021 | 0.0045 ± 0.05 | -0.0135 ± 0.028 | 0.014 ± 0.024 | 0.021 ± 0.0014 | 0.0275 ± 0.019 | -0.0205 ± 0.036 | -0.0125 ± 0.00071 | 0.019 ± 0.014
11 | CASM3C:M-CSF | -0.0095 ± 0.021 | -0.025 ± 0.028 | 0.034 | -0.006 ± 0.0028 | -0.0035 ± 0.0064 | 0.0185 ± 0.06 | -0.0185 ± 0.019 | -0.0125 ± 0.013 | 0.0105 ± 0.0092 | -0.0235 ± 0.0035 | -0.0315 ± 0.011 | -0.0045 ± 0.0035 | -0.0185 ± 0.0035 | 0.0145 ± 0.039 | 0.003 ± 0.028 | 0.016 ± 0.016 | -0.007 ± 0.064 | -0.0095 ± 0.013 | 0.0125 ± 0.036
12 | CASM3C:PAI-I | 0.0055 ± 0.012 | 0.0015 ± 0.0064 | 0.022 | -0.0015 ± 0.013 | -0.0045 ± 0.019 | -0.012 ± 0.0099 | 0.0005 ± 0.005 | -0.003 ± 0.0042 | 0.0095 ± 0.005 | -0.002 ± 0.0071 | 0.0065 ± 0.0078 | 0.004 ± 0.0057 | -0.0005 ± 0.0064 | 0.0045 ± 0.011 | 0.009 | 0.004 | 0.0165 ± 0.0064 | -0.011 ± 0.0014 | 0.0035 ± 0.0078
13 | CASM3C:Proliferation | 0.0185 ± 0.0078 | 0.0085 ± 0.0035 | -0.062 | -0.014 ± 0.045 | 0.002 ± 0.0014 | 0.011 ± 0.04 | -0.001 ± 0.018 | -0.065 | -0.0055 ± 0.015 | -0.016 ± 0.02 | 0.004 ± 0.025 | 0.004 ± 0.0042 | -0.006 ± 0.025 | -0.018 ± 0.013 | -0.0125 ± 0.033 | 0.006 ± 0.042 | 0.023 ± 0.0099 | -0.0005 ± 0.067 | 0.0175 ± 0.046
14 | CASM3C:SRB | -0.0015 ± 0.011 | -0.0105 ± 0.00071 | -0.018 | -0.0045 ± 0.015 | -0.0105 ± 0.00071 | -0.0105 ± 0.0021 | -0.001 | -0.013 ± 0.0028 | -0.0005 ± 0.0021 | -0.001 ± 0.0028 | 0.0045 ± 0.0078 | -0.0045 ± 0.00071 | -0.006 ± 0.0028 | -0.0015 ± 0.0021 | 0.011 ± 0.0042 | 0.004 | 0.006 | -0.0025 ± 0.0035 | -0.0085 ± 0.00071
